From ChEMBL document CHEMBL1201862, “PubChem BioAssay data set” (2004)
Values belong to the molecule of their own block, whether it stands above or below them. Active and inactive are the calls of the source.

Columns and labels:
[1] = molecular target: 26S proteasome non-ATPase regulatory subunit 14 (Homo sapiens, UniProt O00487); test: inhibition of proteasome subunit RPN11 – biochemical, fluorescence polarization, uHTS hits, confirmation (AID 602368); format: functional
[2] = HEK-293T cell viability reduction – luminescence, B-cell screen hits, cytotoxicity control for BCR NF-kB inhibitor project, dose response (AID 489021); format: functional, cell-based;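 note: HEK-293T cells carrying an NF-kB luciferase reporter; cells exposed to compound for about 14 hours before viability readout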
SUMO-activating enzyme [3] = molecular target: T1, SUMO-activating enzyme (Homo sapiens, UniProt Q9UBT2); test: blockers of SAE1/SAE2–UBC9 SUMO transfer – biochemical, HTRF, uHTS, primary screen (AID 2006); format: protein-complex assay
Prothrombin = Prothrombin (Bos taurus, UniProt P00735); test: thrombin protease inhibitors – biochemical, fluorescence polarization, uHTS hits, dose response (AID 602369); format: functional
[4] = molecular target: 72 kDa type IV collagenase (Homo sapiens, UniProt P08253); test: Dose Response validation of uHTS RPN11 inhibitor hits using a MMP-2 Fluorescence assay.; format: functional
SUMO-activating enzyme [5] = molecular target: T1, SUMO-activating enzyme; test: blockers of UBC9-mediated SUMO conjugation – biochemical, AlphaScreen, SUMOylation inhibitor project, confirmation (AID 2018); format: functional
[6] = molecular target: Protein disulfide-isomerase (Homo sapiens, UniProt P07237); test: inhibition of PDI-driven insulin aggregation – biochemical, turbidity, absorbance, cherry-picked samples, dose response (AID 602350); format: functional
[7] = molecular target: DNA dC->dU-editing enzyme APOBEC-3G (Homo sapiens, UniProt Q9HC16); test: inhibition of APOBEC3G ssDNA deamination – biochemical, fluorescence, single-stranded DNA substrate, SAR follow-up (AID 602136); format: functional; settings: read-out: IC50_Mean
[8] = molecular target: DNA dC->dU-editing enzyme APOBEC-3A (Homo sapiens, UniProt P31941); test: SAR analysis of small molecule inhibitors of APOBEC3A DNA Deaminase via a fluorescence-based single-stranded DNA deaminase assay.; format: functional; settings: read-out: IC50_Mean
[9] = molecular target: T2, Interleukin-1 receptor-associated kinase 4 (Homo sapiens, UniProt Q9NWZ3); format: functional
T2 sequence (Q9NWZ3 whole entry): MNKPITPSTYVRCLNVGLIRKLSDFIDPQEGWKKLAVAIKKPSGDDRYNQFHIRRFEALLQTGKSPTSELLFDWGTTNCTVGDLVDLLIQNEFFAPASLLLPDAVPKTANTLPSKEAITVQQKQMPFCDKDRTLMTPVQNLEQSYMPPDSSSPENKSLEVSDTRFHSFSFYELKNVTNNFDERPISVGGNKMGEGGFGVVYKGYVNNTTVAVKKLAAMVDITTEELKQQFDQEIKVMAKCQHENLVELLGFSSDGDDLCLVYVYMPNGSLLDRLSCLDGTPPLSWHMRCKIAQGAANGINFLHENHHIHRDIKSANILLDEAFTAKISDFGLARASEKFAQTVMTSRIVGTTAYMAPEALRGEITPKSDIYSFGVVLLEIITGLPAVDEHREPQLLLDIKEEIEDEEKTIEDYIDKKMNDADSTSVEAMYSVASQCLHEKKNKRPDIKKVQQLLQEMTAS

[10] = molecular target: cAMP-dependent protein kinase catalytic subunit alpha (Homo sapiens, UniProt P17612); format: functional
[11] = molecular target: Cell division cycle 7-related protein kinase (Homo sapiens, UniProt O00311); format: functional;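 note: value obtained from a kinome-wide kinase panel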
[12] = molecular target: Mitogen-activated protein kinase kinase kinase kinase 4 (Homo sapiens, UniProt O95819); format: functional
[13] = molecular target: Homeodomain-interacting protein kinase 2 (Homo sapiens, UniProt Q9H2X6); format: functional;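 note: measured within a kinome-wide kinase profiling panel, HIPK2 being one panel member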
[14] = molecular target: Glycogen synthase kinase-3 beta (Homo sapiens, UniProt P49841); format: functional;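 note: value comes from a broad kinome profiling panel, with GSK3B as the panel member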
[15] = molecular target: Serine/threonine-protein kinase pim-1 (Homo sapiens, UniProt P11309); format: functional
[16] = molecular target: Eukaryotic translation initiation factor 4E (Mus musculus, UniProt P63073); test: blockers of eIF4G binding by eIF4E – biochemical, TR-FRET, dose response (AID 855); format: functional;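 note: potency for disrupting eIF4E binding to eIF4GI seen as loss of FRET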
Insulin-degrading enzyme [17] = molecular target: T3, Insulin-degrading enzyme (Homo sapiens, UniProt P14735); test: recombinant IDE activation, cell-free – biochemical, fluorescence polarization, counter-screen for IDE activator project, dose response (AID 588681)
T3 sequence (P14735 whole entry): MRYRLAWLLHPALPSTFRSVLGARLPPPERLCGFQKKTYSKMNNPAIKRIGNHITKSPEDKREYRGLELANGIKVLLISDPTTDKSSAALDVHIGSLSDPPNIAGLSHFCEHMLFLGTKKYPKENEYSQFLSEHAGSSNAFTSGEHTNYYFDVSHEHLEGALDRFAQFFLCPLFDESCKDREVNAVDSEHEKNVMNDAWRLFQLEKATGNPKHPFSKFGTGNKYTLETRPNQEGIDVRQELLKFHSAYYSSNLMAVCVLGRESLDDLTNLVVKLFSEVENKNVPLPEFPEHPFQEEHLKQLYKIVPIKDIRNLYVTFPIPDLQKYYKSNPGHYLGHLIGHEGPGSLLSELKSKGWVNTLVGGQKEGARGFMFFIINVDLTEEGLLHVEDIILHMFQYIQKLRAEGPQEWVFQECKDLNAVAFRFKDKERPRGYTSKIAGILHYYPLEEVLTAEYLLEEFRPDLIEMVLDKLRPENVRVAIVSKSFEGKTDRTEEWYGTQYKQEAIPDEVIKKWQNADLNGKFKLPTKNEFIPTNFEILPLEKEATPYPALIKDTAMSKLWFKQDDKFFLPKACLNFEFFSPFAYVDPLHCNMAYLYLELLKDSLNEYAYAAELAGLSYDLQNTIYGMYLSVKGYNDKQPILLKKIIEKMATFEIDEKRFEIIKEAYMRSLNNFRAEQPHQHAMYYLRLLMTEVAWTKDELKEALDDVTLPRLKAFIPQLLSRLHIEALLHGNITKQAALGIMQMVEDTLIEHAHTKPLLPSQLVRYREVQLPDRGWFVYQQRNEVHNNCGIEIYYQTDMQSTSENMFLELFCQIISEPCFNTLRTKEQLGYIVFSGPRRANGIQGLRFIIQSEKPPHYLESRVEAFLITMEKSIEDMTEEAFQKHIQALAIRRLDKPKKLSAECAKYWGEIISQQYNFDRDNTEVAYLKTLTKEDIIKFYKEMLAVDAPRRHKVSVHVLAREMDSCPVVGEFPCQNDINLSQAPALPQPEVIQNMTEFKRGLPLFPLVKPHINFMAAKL

HEK293 [18] = test: membrane integrity loss in HEK cells – cell-based, fluorescence, cytotoxicity control for IDE activator project, dose response (AID 588440); format: functional; settings: Homo sapiens;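 note: cytotoxicity by LDH release measuring loss of membrane integrity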
[19] = NIH3T3 cell viability loss – ATP luminescence, mouse fibroblasts, counter-screen, dose response (AID 2010); format: functional, cell-based;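 note: cells exposed to compound for about 90 hours before reading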
[20] = Trypanosoma cruzi growth suppression in host cells – NIH3T3 host cells, beta-gal luminescence, confirmation (AID 2044); format: functional, cell-based;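 note: intracellular parasites grown in NIH/3T3 mouse fibroblasts as host cells; luminescent beta-galactosidase reporter signal from transgenic T. cruzi replicating inside host cells; inhibitors lower the luminescence signal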
HEK293 [21] = test: optical interference in Abeta FP readout, dose response, artefact control for IDE activator project, biochemical, fluorescence polarization (AID 588442); format: functional, cell-based; settings: Homo sapiens
Insulin-degrading enzyme [22] = molecular target: T3, Insulin-degrading enzyme; test: cellular IDE activation of Abeta substrate cleavage – fluorescence polarization, HEK cells, dose response (AID 588439); format: functional, cell-based

T1 sequence (Q9UBE0 whole entry): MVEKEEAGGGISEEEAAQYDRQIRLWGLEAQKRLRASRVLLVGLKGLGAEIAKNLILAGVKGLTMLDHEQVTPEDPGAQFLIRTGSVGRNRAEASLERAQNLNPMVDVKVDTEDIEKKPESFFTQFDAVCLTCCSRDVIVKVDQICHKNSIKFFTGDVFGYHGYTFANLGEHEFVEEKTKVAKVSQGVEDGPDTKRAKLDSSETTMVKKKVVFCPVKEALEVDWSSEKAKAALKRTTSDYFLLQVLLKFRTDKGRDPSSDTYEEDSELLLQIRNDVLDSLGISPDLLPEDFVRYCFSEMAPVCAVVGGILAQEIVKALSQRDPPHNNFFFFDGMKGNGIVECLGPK
T1 sequence (Q9UBT2 whole entry): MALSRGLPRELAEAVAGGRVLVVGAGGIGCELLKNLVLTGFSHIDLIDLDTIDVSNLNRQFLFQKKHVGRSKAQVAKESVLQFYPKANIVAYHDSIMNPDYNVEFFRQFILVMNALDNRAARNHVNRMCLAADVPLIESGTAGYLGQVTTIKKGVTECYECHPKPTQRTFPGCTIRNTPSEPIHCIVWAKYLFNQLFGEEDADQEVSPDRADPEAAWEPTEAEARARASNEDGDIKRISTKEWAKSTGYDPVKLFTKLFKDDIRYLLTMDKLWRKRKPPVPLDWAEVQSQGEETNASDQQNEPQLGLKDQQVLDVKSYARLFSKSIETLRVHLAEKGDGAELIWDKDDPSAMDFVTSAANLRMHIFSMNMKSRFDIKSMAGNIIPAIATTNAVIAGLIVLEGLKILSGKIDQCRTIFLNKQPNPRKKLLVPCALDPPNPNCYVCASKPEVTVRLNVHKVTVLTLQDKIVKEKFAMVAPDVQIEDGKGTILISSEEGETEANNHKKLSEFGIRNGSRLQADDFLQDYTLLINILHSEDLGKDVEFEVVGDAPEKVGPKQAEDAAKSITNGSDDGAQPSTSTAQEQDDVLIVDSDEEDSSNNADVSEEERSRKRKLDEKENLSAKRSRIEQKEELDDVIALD
Mitogen-activated protein kinase kinase kinase kinase 4, sequence (O95819 whole entry): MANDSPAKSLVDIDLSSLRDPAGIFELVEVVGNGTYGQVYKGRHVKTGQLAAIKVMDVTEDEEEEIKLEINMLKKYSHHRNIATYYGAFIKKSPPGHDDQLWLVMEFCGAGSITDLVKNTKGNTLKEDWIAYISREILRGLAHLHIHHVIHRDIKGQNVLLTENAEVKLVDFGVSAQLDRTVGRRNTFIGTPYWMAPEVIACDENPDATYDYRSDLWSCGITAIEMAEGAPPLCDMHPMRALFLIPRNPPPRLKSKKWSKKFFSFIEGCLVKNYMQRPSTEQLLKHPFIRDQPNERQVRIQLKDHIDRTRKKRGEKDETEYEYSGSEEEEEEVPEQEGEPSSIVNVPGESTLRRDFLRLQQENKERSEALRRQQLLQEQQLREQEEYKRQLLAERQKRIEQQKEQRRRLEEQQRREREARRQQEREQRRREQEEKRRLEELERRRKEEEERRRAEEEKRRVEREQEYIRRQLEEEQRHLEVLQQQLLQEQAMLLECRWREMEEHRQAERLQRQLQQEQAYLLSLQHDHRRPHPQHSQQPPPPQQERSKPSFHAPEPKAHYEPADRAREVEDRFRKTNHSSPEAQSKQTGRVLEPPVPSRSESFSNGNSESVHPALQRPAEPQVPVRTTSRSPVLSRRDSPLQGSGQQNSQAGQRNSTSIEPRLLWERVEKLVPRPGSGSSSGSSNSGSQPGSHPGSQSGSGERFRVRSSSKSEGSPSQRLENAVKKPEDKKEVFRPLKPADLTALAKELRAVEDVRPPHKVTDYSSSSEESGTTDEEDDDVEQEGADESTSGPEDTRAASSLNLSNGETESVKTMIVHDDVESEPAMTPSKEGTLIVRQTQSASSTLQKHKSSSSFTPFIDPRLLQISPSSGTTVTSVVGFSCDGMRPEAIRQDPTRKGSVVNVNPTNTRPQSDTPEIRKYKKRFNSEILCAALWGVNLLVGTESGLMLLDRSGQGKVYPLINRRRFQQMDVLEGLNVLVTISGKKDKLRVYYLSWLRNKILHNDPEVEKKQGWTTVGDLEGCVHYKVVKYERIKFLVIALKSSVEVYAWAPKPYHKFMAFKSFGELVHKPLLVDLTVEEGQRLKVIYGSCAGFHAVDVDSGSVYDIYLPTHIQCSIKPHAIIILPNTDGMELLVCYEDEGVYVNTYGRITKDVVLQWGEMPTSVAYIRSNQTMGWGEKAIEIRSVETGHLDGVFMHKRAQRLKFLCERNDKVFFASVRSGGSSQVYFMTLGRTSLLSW
Eukaryotic translation initiation factor 4E, sequence (P63073 whole entry): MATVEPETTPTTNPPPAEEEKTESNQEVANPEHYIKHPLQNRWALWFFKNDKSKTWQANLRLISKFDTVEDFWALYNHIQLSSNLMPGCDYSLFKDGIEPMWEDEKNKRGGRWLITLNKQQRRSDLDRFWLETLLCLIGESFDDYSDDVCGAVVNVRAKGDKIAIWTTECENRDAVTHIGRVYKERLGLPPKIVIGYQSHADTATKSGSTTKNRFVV
Protein disulfide-isomerase, sequence (P07237 whole entry): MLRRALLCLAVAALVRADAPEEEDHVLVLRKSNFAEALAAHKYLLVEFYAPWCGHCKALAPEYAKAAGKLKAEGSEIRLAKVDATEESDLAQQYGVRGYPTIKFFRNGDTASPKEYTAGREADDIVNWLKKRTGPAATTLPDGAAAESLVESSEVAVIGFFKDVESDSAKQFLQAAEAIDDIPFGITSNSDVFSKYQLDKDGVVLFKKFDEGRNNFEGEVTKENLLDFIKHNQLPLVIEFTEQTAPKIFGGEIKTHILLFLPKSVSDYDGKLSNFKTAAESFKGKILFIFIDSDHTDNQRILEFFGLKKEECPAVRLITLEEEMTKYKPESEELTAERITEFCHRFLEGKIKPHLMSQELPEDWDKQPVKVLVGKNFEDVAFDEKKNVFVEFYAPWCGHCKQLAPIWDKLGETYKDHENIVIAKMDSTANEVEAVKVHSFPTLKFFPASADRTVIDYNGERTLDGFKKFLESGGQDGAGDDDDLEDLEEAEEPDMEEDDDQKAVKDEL
72 kDa type IV collagenase, sequence (P08253 whole entry): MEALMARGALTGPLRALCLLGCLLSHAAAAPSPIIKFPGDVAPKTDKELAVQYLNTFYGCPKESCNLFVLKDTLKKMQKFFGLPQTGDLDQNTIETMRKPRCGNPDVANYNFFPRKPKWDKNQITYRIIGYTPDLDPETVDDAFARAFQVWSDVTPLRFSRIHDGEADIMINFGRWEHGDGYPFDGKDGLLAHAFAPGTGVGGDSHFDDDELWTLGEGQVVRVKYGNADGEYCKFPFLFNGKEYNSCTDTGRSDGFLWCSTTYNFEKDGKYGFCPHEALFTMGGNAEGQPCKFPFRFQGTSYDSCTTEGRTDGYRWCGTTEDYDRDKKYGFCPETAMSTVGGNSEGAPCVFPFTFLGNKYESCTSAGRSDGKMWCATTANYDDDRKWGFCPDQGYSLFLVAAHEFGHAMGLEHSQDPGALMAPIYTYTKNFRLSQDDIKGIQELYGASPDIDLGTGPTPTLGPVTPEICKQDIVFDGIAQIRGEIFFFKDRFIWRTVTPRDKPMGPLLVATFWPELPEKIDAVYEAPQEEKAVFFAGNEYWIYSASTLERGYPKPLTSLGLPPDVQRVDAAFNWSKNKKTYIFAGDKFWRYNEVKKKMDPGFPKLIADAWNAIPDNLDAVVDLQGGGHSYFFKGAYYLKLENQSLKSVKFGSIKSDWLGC
Glycogen synthase kinase-3 beta, sequence (P49841 whole entry): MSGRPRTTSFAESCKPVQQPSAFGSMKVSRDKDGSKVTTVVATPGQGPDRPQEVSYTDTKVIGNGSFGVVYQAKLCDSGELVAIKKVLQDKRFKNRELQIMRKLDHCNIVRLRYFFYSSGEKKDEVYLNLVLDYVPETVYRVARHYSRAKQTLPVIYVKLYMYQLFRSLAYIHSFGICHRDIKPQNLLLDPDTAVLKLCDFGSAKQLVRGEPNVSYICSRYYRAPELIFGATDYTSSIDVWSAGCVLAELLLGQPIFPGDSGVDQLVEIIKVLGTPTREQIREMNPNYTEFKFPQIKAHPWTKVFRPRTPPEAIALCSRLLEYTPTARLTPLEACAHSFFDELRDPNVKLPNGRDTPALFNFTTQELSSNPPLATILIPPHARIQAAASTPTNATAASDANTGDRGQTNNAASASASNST
Serine/threonine-protein kinase pim-1, sequence (P11309 whole entry): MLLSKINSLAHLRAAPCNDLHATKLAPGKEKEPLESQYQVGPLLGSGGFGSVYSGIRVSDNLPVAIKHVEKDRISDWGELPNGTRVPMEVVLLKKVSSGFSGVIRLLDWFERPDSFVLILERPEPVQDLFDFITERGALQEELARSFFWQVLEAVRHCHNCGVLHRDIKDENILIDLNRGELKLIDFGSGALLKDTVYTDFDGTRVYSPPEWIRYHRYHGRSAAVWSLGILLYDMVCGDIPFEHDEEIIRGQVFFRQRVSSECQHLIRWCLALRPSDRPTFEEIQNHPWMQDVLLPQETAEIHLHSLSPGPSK
DNA dC->dU-editing enzyme APOBEC-3G, sequence (Q9HC16 whole entry): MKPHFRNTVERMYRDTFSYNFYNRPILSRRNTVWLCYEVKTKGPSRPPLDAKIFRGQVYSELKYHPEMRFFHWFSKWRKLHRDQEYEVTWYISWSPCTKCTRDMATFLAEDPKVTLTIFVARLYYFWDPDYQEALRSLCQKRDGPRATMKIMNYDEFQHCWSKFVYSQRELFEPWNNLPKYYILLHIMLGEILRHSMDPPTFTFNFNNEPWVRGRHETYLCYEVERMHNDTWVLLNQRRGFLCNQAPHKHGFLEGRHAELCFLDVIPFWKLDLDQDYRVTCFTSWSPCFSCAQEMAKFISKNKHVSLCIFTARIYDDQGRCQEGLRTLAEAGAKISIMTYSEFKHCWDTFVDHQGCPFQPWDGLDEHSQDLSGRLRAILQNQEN
DNA dC->dU-editing enzyme APOBEC-3A, sequence (P31941 whole entry): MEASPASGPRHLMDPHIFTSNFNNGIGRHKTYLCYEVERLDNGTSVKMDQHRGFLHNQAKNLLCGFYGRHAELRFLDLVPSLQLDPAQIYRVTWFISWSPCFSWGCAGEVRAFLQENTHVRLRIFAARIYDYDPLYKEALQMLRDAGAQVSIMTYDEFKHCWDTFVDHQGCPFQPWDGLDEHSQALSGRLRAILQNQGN

SMILES: CCc1ccc(/C=C2/SC(=S)N(CCC(=O)Nc3ccc(C(=O)O)cc3)C2=O)cc1
IC50 [1]: 18.1 µM (active)
IC50 [2]: > 80 µM (inactive)
IC50 (SUMO-activating enzyme [3]): 14.1 µM (active)
IC50 (Prothrombin): 51.7 µM (active)
IC50 [4]: > 100 µM (inactive)
IC50 (SUMO-activating enzyme [5]): 4.15 µM (active)

AC50 [6]: 19.5 µM (active)
SMILES: NNC(=O)c1cc(-c2ccc(O)cc2)nc2ccc(Br)cc12

SMILES: CCCc1nnc2c3c4c(sc3ncn12)CCCC4
IC50 [7]: > 99 µM (inactive)
IC50 [8]: > 99 µM (inactive)

Ki [9]: 1.26 µM (active)
Ki [10]: 0.158 µM (active)
Ki [11]: 0.00251 µM (active)
Ki [12]: 0.00398 µM (active)
Ki [13]: 0.0794 µM (active)
Ki [14]: 0.2 µM (active)
Ki [15]: 1.58 µM (active)
SMILES: OCCNc1cc(-c2c[nH]c3ncccc23)cc(Cl)n1

SMILES: CCN1CCN(CCNC(=O)c2ccc(/C=C3/Sc4ccccc4N(Cc4cccc(Cl)c4)C3=O)cc2)CC1
IC50 [16]: 50 µM (inactive)
EC50 (Insulin-degrading enzyme [17]): 53.4 µM (inactive)
IC50 (HEK293 [18]): 19.5 µM (inactive)
EC50 [19]: 8.47 µM (active)
EC50 [20]: 1.41 µM (active)
EC50 (HEK293 [21]): > 55.9 µM (inactive)
EC50 (Insulin-degrading enzyme [22]): > 54.7 µM (inactive)
